Measurements: the NIST ThermoML archive (doi:10.1021/je3011979)

What was measured:
[1] = xn = mol fraction of the nth substance listed; settings: 101 kPa, Liquid, Vibrating tube method
[2] = excess molar enthalpy (molar enthalpy of mixing); xn = mol fraction of the nth substance listed; settings: 101 kPa, Liquid, Calvet calorimetry

CCCOC(C)=O [propyl ethanoate] + CCCCCCCC
Settings | excess molar enthalpy [kcal/mol] | mass density [kg/m3]
[1], 291.15 K, x1 = 0.012 | – | 705.7
[1], 291.15 K, x1 = 0.0405 | – | 708.9
[1], 291.15 K, x1 = 0.1465 | – | 721.9
[1], 291.15 K, x1 = 0.1905 | – | 727.8
[1], 291.15 K, x1 = 0.2679 | – | 738.6
[1], 291.15 K, x1 = 0.3573 | – | 752.2
[1], 291.15 K, x1 = 0.4206 | – | 762.5
[1], 291.15 K, x1 = 0.4808 | – | 772.7
[1], 291.15 K, x1 = 0.5357 | – | 782.6
[1], 291.15 K, x1 = 0.6206 | – | 798.8
[1], 291.15 K, x1 = 0.6668 | – | 808.1
[1], 291.15 K, x1 = 0.7082 | – | 816.9
[1], 291.15 K, x1 = 0.7644 | – | 829.3
[1], 291.15 K, x1 = 0.8181 | – | 841.9
[1], 291.15 K, x1 = 0.8638 | – | 853.1
[1], 291.15 K, x1 = 0.9109 | – | 865.1
[1], 291.15 K, x1 = 0.9798 | – | 883.9
[1], 291.15 K, x1 = 1 | – | 889.6
[1], 298.15 K, x1 = 0.0149 | – | 700.3
[1], 298.15 K, x1 = 0.0603 | – | 705.4
[1], 298.15 K, x1 = 0.1039 | – | 710.8
[1], 298.15 K, x1 = 0.2154 | – | 725.3
[1], 298.15 K, x1 = 0.2536 | – | 730.6
[1], 298.15 K, x1 = 0.3283 | – | 741.5
[1], 298.15 K, x1 = 0.3895 | – | 751.1
[1], 298.15 K, x1 = 0.4733 | – | 765
[1], 298.15 K, x1 = 0.5382 | – | 776.6
[1], 298.15 K, x1 = 0.5953 | – | 787.3
[1], 298.15 K, x1 = 0.6543 | – | 799
[1], 298.15 K, x1 = 0.7043 | – | 809.4
[1], 298.15 K, x1 = 0.7628 | – | 822.2
[1], 298.15 K, x1 = 0.8145 | – | 834.2
[1], 298.15 K, x1 = 0.862 | – | 845.6
[1], 298.15 K, x1 = 0.9221 | – | 860.9
[1], 298.15 K, x1 = 0.9349 | – | 864.3
[1], 298.15 K, x1 = 1 | – | 882.5
[1], 318.15 K, x1 = 0.044 | – | 687.1
[1], 318.15 K, x1 = 0.0919 | – | 692.5
[1], 318.15 K, x1 = 0.1675 | – | 701.7
[1], 318.15 K, x1 = 0.2438 | – | 711.7
[1], 318.15 K, x1 = 0.3148 | – | 721.6
[1], 318.15 K, x1 = 0.3866 | – | 732.3
[1], 318.15 K, x1 = 0.4471 | – | 741.8
[1], 318.15 K, x1 = 0.5188 | – | 753.7
[1], 318.15 K, x1 = 0.5695 | – | 762.8
[1], 318.15 K, x1 = 0.6293 | – | 773.9
[1], 318.15 K, x1 = 0.6793 | – | 783.8
[1], 318.15 K, x1 = 0.7422 | – | 796.8
[1], 318.15 K, x1 = 0.7792 | – | 804.8
[1], 318.15 K, x1 = 0.8435 | – | 819.5
[1], 318.15 K, x1 = 0.8743 | – | 826.9
[1], 318.15 K, x1 = 0.9284 | – | 840.5
[1], 318.15 K, x1 = 1 | – | 859.8
[1], 328.15 K, x1 = 0.0249 | – | 676.7
[1], 328.15 K, x1 = 0.1032 | – | 685.4
[1], 328.15 K, x1 = 0.1801 | – | 694.6
[1], 328.15 K, x1 = 0.2554 | – | 704.4
[1], 328.15 K, x1 = 0.3244 | – | 713.9
[1], 328.15 K, x1 = 0.4 | – | 725
[1], 328.15 K, x1 = 0.4761 | – | 737
[1], 328.15 K, x1 = 0.5341 | – | 746.7
[1], 328.15 K, x1 = 0.5975 | – | 757.9
[1], 328.15 K, x1 = 0.6603 | – | 769.7
[1], 328.15 K, x1 = 0.7147 | – | 780.7
[1], 328.15 K, x1 = 0.7686 | – | 791.9
[1], 328.15 K, x1 = 0.8149 | – | 802.1
[1], 328.15 K, x1 = 0.8651 | – | 813.8
[1], 328.15 K, x1 = 0.9233 | – | 828
[1], 328.15 K, x1 = 0.9404 | – | 832.4
[1], 328.15 K, x1 = 1 | – | 848.3
[2], 291.15 K, x1 = 0.0879 | 0.109 | –
[2], 291.15 K, x1 = 0.1784 | 0.183 | –
[2], 291.15 K, x1 = 0.2664 | 0.2424 | –
[2], 291.15 K, x1 = 0.3472 | 0.2808 | –
[2], 291.15 K, x1 = 0.4208 | 0.3023 | –
[2], 291.15 K, x1 = 0.486 | 0.3102 | –
[2], 291.15 K, x1 = 0.5436 | 0.3088 | –
[2], 291.15 K, x1 = 0.5927 | 0.3004 | –
[2], 291.15 K, x1 = 0.618 | 0.2913 | –
[2], 291.15 K, x1 = 0.6703 | 0.2722 | –
[2], 291.15 K, x1 = 0.7256 | 0.2438 | –
[2], 291.15 K, x1 = 0.7843 | 0.206 | –
[2], 291.15 K, x1 = 0.8412 | 0.164 | –
[2], 291.15 K, x1 = 0.8983 | 0.112 | –
[2], 291.15 K, x1 = 0.9546 | 0.0557 | –
[2], 298.15 K, x1 = 0.0883 | 0.103 | –
[2], 298.15 K, x1 = 0.1747 | 0.174 | –
[2], 298.15 K, x1 = 0.2568 | 0.2309 | –
[2], 298.15 K, x1 = 0.3398 | 0.2701 | –
[2], 298.15 K, x1 = 0.4117 | 0.2913 | –
[2], 298.15 K, x1 = 0.4788 | 0.3004 | –
[2], 298.15 K, x1 = 0.5346 | 0.2985 | –
[2], 298.15 K, x1 = 0.5849 | 0.2913 | –
[2], 298.15 K, x1 = 0.6055 | 0.2866 | –
[2], 298.15 K, x1 = 0.655 | 0.2722 | –
[2], 298.15 K, x1 = 0.7074 | 0.2507 | –
[2], 298.15 K, x1 = 0.7607 | 0.222 | –
[2], 318.15 K, x1 = 0.0767 | 0.0942 | –
[2], 318.15 K, x1 = 0.1676 | 0.177 | –
[2], 318.15 K, x1 = 0.2591 | 0.2433 | –
[2], 318.15 K, x1 = 0.3352 | 0.2818 | –
[2], 318.15 K, x1 = 0.4086 | 0.305 | –
[2], 318.15 K, x1 = 0.4719 | 0.3117 | –
[2], 318.15 K, x1 = 0.5293 | 0.3098 | –
[2], 318.15 K, x1 = 0.5791 | 0.3004 | –
[2], 318.15 K, x1 = 0.5859 | 0.2983 | –
[2], 318.15 K, x1 = 0.6316 | 0.2847 | –
[2], 318.15 K, x1 = 0.6848 | 0.2648 | –
[2], 318.15 K, x1 = 0.7377 | 0.2392 | –
[2], 318.15 K, x1 = 0.7936 | 0.2065 | –
[2], 318.15 K, x1 = 0.8521 | 0.163 | –
[2], 318.15 K, x1 = 0.9064 | 0.114 | –
[2], 318.15 K, x1 = 0.9555 | 0.0595 | –
